Counter-ions that a name gives are not always drawn.

This experiment deals with rat foot pad. Briefly: Inhibition of sweat in the rat foot pad (iodine/starch count of activated sweat glands, test foot vs control foot). Type of experiment: in vivo, Sprague Dawley rats. The conditions noted are these: for Approx. % Inhibition: topical on hind foot pads, photo 40 minutes post treatment. The protocol:
To test the effectiveness of the adrenergic amines encompassed in this invention in inhibiting perspiration the following tests were carried out.
A series of test solutions were prepared by dissolving various quantities of xylometazoline HCl, oxymetazoline HCl and naphazoline HCl in freshly prepared distilled water. In the case of xylometazoline HCl 0.003%, 0.03%, 0.15% and 0.3% solutions were prepared. In the cases for oxymetazoline HCl and naphazoline HCl 0.15% solutions were made. The control material is distilled water.
• A. Prior to testing, rats are routinely acclimated to the laboratory environment for seven days and gross observations are made to ensure good health of animals to be tested. • B. Sprague Dawley rats, male and/or female (175-250 gm) are selected for test and identified by cage label and ear tag number. • C. A minimum of 6 animals is used in testing each solution.
• A. Test room should be maintained at a temperature of 78/± 2/F. • B. • 1. Test animals are injected intramuscularly with Innovar Vet\)\ (.01 ml/100 gm body wt.) by use of a 0.25 ml tuberculin syringe with a 26-27 gauge needle. Animals are then returned to their cages. • 2. […] Both hind feet are then swabbed with 70% ethyl alcohol (ETOH) to remove any debris. • 4. The four interdigital palmar foot pads on one hind foot are then treated with test material while the opposite hind foot is treated with the control material. • 5. After treatment of all animals, an iodine solution (2% in 95% ETOH wt./vol.) is applied to both hind feet. • 6. 30 minutes post treatment the hind feet are then painted with a suspension of starch and castor oil (50/50, wt./vol.). • 7. 40 minutes post treatment Polaroid photos (3X, using Polaroid Type Film 669) are taken of both hind feet in the same frame.
• 1. The number of activated sweat glands in each of the four palmar foot pads is quantitated by manually counting the black dots observed in the photo of the control and test treated feet. • 2. The ratio of the total number of secreting sweat glands on the control foot vs the total number of secreting glands on the test foot is used to estimate the percent inhibition of sweat in the rat foot pad. • 3. The following formula is used to calculate activity: Percent inhibition of sweat in the rat foot pad = [formula]

Setting [1] is: Concentration tested 0.15% in distilled water.

With `c1ccc2c(CC3=NCCN3)cccc2c1` [Naphazoline HCl, naphazoline HCl], under setting [1], the “Approx. % Inhibition” value is on record as roughly 95%.
In the case of `Cc1cc(C(C)(C)C)cc(C)c1CC1=NCCN1` [Xylometazoline HCl, xylometazoline HCl], the “Approx. % Inhibition” value is recorded as roughly 30% (Concentration tested 0.003% in distilled water), roughly 50% (Concentration tested 0.03% in distilled water), roughly 80% under setting [1] and roughly 88% (Concentration tested 0.3% in distilled water). Further, the “perspiration inhibition (result in words)” value (summary of Table I, concentrations 0.003-0.3%) is reported as “a dose response has been demonstrated”.
Turning to `Cc1cc(C(C)(C)C)c(O)c(C)c1CC1=NCCN1` [Oxymetazoline HCl, oxymetazoline HCl], the “Approx. % Inhibition” value under setting [1] was roughly 92%.
